Data on eleven compounds can be found in ChEMBL document CHEMBL1201862, “PubChem BioAssay data set” (2004).

Structures are written as SMILES.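 Tested at 5 concentrations; 48 h exposure; 96-well plates; endpoints linearly interpolated, else capped at highest concentration. GI50 = concentration required for 50% inhibition of growth.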 Activity calls are given as the source filed them. Cut-off read from the data, not from the text of the source: active = GI50 up to about 1.1 µM and inactive = higher.

Test systems include HOP-62; RPMI-8226; SW-620; RXF 393; NCI-H23; HOP-92; MCF7; Hs-578T; UACC-257; OVCAR-3; HCT-116; Malme-3M; MOLT-4; SN12C; UO-31; PC-3; ACHN; TK-10; LOX IMVI.
What all share (experiment): NCI tumour cell line growth inhibition, 48 h

With `CC1OC(OC2C(O[C@@H]3C[C@@H]4CC[C@@H]5[C@H](CC[C@]6(C)[C@@H]7[C@H](C[C@@H]56)O[C@]5(CC[C@@H](C)CO5)[C@H]7C)[C@@]4(C)C[C@H]3O)OC(CO)C(OC3OC(CO)C(O)C(O)C3O)C2O)C(O)C(O)C1O` (stereo partly drawn), the GI50 in the assay with HOP-62 was 1.83 µM (inactive); with RPMI-8226 it was 3.17 µM (inactive); with SW-620, 1.67 µM (inactive); in the assay with RXF 393, 2.01 µM (inactive); with NCI-H23, 2.03 µM (inactive); in the assay on HOP-92, 2.51 µM (inactive). Besides, the GI50 in the assay on MCF7 was 1.85 µM (inactive); in the assay on Hs-578T it was 2.02 µM (inactive); in the assay with UACC-257, 1.87 µM (inactive); with OVCAR-3, 1.65 µM (inactive); in the assay on HCT-116, 3.78 µM (inactive); in the assay on Malme-3M, 1.29 µM (inactive). For the same compound, the GI50 in the assay on MOLT-4 is 1.96 µM (inactive); in the assay on SN12C, 1.68 µM (inactive); with UO-31, 2.12 µM (inactive); with PC-3, 1.52 µM (inactive); in the assay with ACHN it was 1.79 µM (inactive).
With `C=C(COC(=O)C(C)C)[C@H]1Oc2ccc(C(C)=O)cc2[C@@H]1OC(=O)C(C)C`, the GI50 in the assay on HOP-62 was > 100 µM (inactive); in the assay with RPMI-8226 it was 76.4 µM (inactive); in the assay with SW-620 it was > 100 µM (inactive); in the assay on RXF 393, > 100 µM (inactive); in the assay with TK-10, > 100 µM (inactive); in the assay on NCI-H23, > 100 µM (inactive). For the same compound, the GI50 in the assay on MCF7 was > 100 µM (inactive); with Hs-578T, 42.6 µM (inactive); with UACC-257 it was > 100 µM (inactive); with OVCAR-3 it was > 100 µM (inactive); in the assay with HCT-116 it was > 100 µM (inactive); in the assay with Malme-3M, > 100 µM (inactive). Moreover, the GI50 in the assay on MOLT-4, in the assay with SN12C, in the assay with UO-31, with LOX IMVI, with PC-3 and with ACHN was > 100 µM (inactive) in each case.
Consider `Cc1ccc(N(C)S(=O)(=O)c2ccccc2)cc1`, for which the GI50 with HOP-62 is > 100 µM (inactive); with RPMI-8226, 59.8 µM (inactive); in the assay with SW-620 it was > 100 µM (inactive); in the assay on RXF 393, 29.5 µM (inactive); in the assay with TK-10, > 100 µM (inactive); in the assay on NCI-H23, 95.5 µM (inactive). Also, the GI50 was > 100 µM (inactive) in the assay on MCF7; > 100 µM (inactive) with Hs-578T; > 100 µM (inactive) with UACC-257; > 100 µM (inactive) in the assay on OVCAR-3; 86.5 µM (inactive) with HCT-116; > 100 µM (inactive) in the assay on Malme-3M. The GI50 in the assay on MOLT-4 was 19 µM (inactive); in the assay with SN12C it was > 100 µM (inactive); with UO-31 it was > 100 µM (inactive); with LOX IMVI, > 100 µM (inactive); in the assay on PC-3 it was 36.2 µM (inactive); in the assay on ACHN it was > 100 µM (inactive).
As for `O=c1cc(CNC2CCCC2)[nH]c(=O)[nH]1`, the GI50 in the assay on HOP-62, with RPMI-8226, in the assay on SW-620, in the assay with RXF 393, with TK-10 and in the assay with NCI-H23 was > 100 µM (inactive) in each case. For the same compound, the GI50 in the assay with MCF7, in the assay with Hs-578T, with UACC-257, with OVCAR-3, with HCT-116 and with Malme-3M was > 100 µM (inactive) each time. In addition, the GI50 with MOLT-4, in the assay with SN12C, in the assay with UO-31, with LOX IMVI, in the assay on PC-3 and in the assay on ACHN was > 100 µM (inactive) throughout.
Turning to `O=C1CC(C(O)CO)CC(=O)N1` (stereo not drawn), the GI50 in the assay on HOP-62, in the assay with RPMI-8226, in the assay with SW-620, in the assay with TK-10, with NCI-H23 and with HOP-92 was > 100 µM (inactive) throughout. For the same compound, the GI50 in the assay on MCF7, with Hs-578T, in the assay with UACC-257, in the assay on OVCAR-3, in the assay with HCT-116 and with Malme-3M was > 100 µM (inactive) in each case. The GI50 was > 10 µM (inactive) with MOLT-4; > 100 µM (inactive) in the assay on SN12C; > 100 µM (inactive) in the assay with UO-31; > 100 µM (inactive) in the assay with LOX IMVI; > 100 µM (inactive) in the assay on PC-3; > 100 µM (inactive) in the assay with ACHN.
Consider `COc1cc2c(cc1OC)C(Cc1ccccc1CCCl)=NCC2`, for which the GI50 in the assay with HOP-62 is > 100 µM (inactive); with RPMI-8226, 24.2 µM (inactive); in the assay with SW-620 it was 42 µM (inactive); in the assay on RXF 393 it was 43.7 µM (inactive); with TK-10 it was > 100 µM (inactive); with NCI-H23, 22 µM (inactive). Besides, the GI50 in the assay on HOP-92 was 30.3 µM (inactive); with MCF7, 49.4 µM (inactive); with Hs-578T, 73.5 µM (inactive); in the assay with UACC-257, 50.8 µM (inactive); in the assay with OVCAR-3 it was > 100 µM (inactive); with HCT-116, 21.1 µM (inactive). Further, the GI50 in the assay with MOLT-4 is 38.6 µM (inactive); with SN12C it was > 100 µM (inactive); in the assay with UO-31 it was 31.3 µM (inactive); with PC-3 it was 31.1 µM (inactive); in the assay with ACHN, 73.3 µM (inactive).
Take `CS(=O)(=O)CCC(N)P(=O)(O)O` (stereo not drawn): the GI50 with HOP-62, in the assay on RPMI-8226, with SW-620, in the assay with TK-10, in the assay on NCI-H23 and in the assay on HOP-92 was > 100 µM (inactive) throughout. The GI50 in the assay on MCF7, in the assay on Hs-578T, in the assay on UACC-257, in the assay with OVCAR-3, in the assay on HCT-116 and in the assay with Malme-3M was > 100 µM (inactive) each time. Moreover, the GI50 in the assay on MOLT-4, in the assay on SN12C, in the assay on UO-31, with LOX IMVI, in the assay with PC-3 and in the assay with ACHN was > 100 µM (inactive) in each case.
For the compound `O=C(O)CO[C@@]12C#C/C=C\C#C[C@@H]3N(C(=O)Oc4ccccc4)c4ccccc4[C@]14O[C@@]34CCC2`, the GI50 with HOP-62 was 83.8 µM (inactive); in the assay on RPMI-8226 it was 31.6 µM (inactive); in the assay on SW-620, 47.6 µM (inactive); with TK-10, > 100 µM (inactive); in the assay with NCI-H23, 53.5 µM (inactive); in the assay on HOP-92 it was 57.4 µM (inactive). Besides, the GI50 with MCF7 is 14.6 µM (inactive); with Hs-578T, 19.4 µM (inactive); in the assay with UACC-257, 55.7 µM (inactive); in the assay with OVCAR-3 it was 47.1 µM (inactive); with HCT-116, 33.4 µM (inactive); in the assay on MOLT-4, 28.8 µM (inactive). The GI50 was 30.5 µM (inactive) in the assay with SN12C; 24.1 µM (inactive) in the assay with UO-31; 40.5 µM (inactive) with LOX IMVI; 26.2 µM (inactive) in the assay on PC-3; 85.9 µM (inactive) with ACHN.
For `Cc1ccc(Cc2n[nH]c(=O)[nH]2)cc1`, the GI50 was > 100 µM (inactive) with HOP-62; > 100 µM (inactive) with SW-620; > 100 µM (inactive) with TK-10; > 100 µM (inactive) with NCI-H23; > 100 µM (inactive) in the assay with HOP-92; 28.6 µM (inactive) with MCF7. The GI50 in the assay with Hs-578T, with UACC-257, in the assay on OVCAR-3, in the assay on HCT-116, in the assay on Malme-3M and with MOLT-4 was > 100 µM (inactive) in each case. Further, the GI50 with SN12C, in the assay on UO-31, with LOX IMVI, in the assay with PC-3 and in the assay with ACHN was > 100 µM (inactive) in each case.
Take `CCCC(C)c1c(Cl)nc(Cl)nc1Cl` (stereo not drawn): the GI50 is 8.36 µM (inactive) with HOP-62; 5.53 µM (inactive) in the assay with RPMI-8226; 4.23 µM (inactive) with SW-620; 10.6 µM (inactive) in the assay on RXF 393; 20.9 µM (inactive) in the assay on TK-10; 3.18 µM (inactive) in the assay on NCI-H23. The GI50 was 8.55 µM (inactive) in the assay with MCF7; 9.38 µM (inactive) in the assay with Hs-578T; 11 µM (inactive) with UACC-257; 9.57 µM (inactive) with OVCAR-3; 1.73 µM (inactive) with HCT-116; 8.45 µM (inactive) with Malme-3M. Further, the GI50 is 1.49 µM (inactive) in the assay on MOLT-4; 7.94 µM (inactive) with SN12C; 19.5 µM (inactive) in the assay with UO-31; 1.66 µM (inactive) in the assay on LOX IMVI; 14.8 µM (inactive) in the assay on PC-3; 4.21 µM (inactive) with ACHN.
With `CC(C)(C)OC(=O)N(CCCCNCc1ccc2ccccc2c1)CCCNCc1ccc2ccccc2c1`, the GI50 in the assay with HOP-62 was 1.86 µM (inactive); in the assay with RPMI-8226, 1.08 µM (active); in the assay on SW-620 it was 1.75 µM (inactive); in the assay on RXF 393 it was 1.69 µM (inactive); with TK-10 it was 1.66 µM (inactive); with NCI-H23, 1.85 µM (inactive). Moreover, the GI50 in the assay on HOP-92 is 1.64 µM (inactive); in the assay with MCF7, 1.55 µM (inactive); in the assay with Hs-578T it was 1.77 µM (inactive); with UACC-257 it was 1.91 µM (inactive); with OVCAR-3 it was 1.93 µM (inactive); in the assay on HCT-116, 1.15 µM (inactive). Further, the GI50 in the assay on MOLT-4 was 0.708 µM (active); with SN12C it was 1.75 µM (inactive); in the assay with UO-31, 1.73 µM (inactive); with PC-3, 1.94 µM (inactive); with ACHN it was 1.92 µM (inactive).
